Laboratory results reported in ChEMBL document CHEMBL4507295 (2021).

Legend:
[1] = biological target: Myosin light chain kinase family member 4 (Homo sapiens) (UniProt Q86YV6); settings: Compound concentration 1000.0 nM
[2] = biological target: Vascular endothelial growth factor receptor 3 (Homo sapiens) (UniProt P35916); settings: Compound concentration 1000.0 nM
[3] = biological target: Serine/threonine-protein kinase ULK1 (Homo sapiens) (UniProt O75385); settings: Compound concentration 1000.0 nM
[4] = biological target: T1, 5-hydroxytryptamine receptor 1A (Homo sapiens) (UniProt P08908); settings: Compound concentration 10.0 uM
T1 sequence (whole entry): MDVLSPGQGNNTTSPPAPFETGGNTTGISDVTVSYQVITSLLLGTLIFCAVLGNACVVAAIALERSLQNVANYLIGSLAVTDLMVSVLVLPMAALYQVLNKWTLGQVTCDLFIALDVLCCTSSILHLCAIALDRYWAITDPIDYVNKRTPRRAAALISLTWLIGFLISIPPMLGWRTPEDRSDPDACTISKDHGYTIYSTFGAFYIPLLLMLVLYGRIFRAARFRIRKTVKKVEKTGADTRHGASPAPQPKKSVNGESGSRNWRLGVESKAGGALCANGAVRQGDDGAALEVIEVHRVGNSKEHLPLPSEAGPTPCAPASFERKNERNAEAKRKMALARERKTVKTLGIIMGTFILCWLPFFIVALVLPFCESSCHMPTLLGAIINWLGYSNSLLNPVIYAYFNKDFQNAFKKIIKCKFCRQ

[5] = biological target: Calcium/calmodulin-dependent protein kinase type 1 (Homo sapiens) (UniProt Q14012); settings: Compound concentration 1000.0 nM
[6] = biological target: Myosin light chain kinase 2, skeletal/cardiac muscle (Homo sapiens) (UniProt Q9H1R3); settings: Compound concentration 1000.0 nM
[7] = biological target: Mitogen-activated protein kinase 13 (Homo sapiens) (UniProt O15264); settings: Compound concentration 1000.0 nM
[8] = biological target: Microtubule-associated serine/threonine-protein kinase 1 (Homo sapiens) (UniProt Q9Y2H9); settings: Compound concentration 1000.0 nM
[9] = biological target: Ribosomal protein S6 kinase alpha-6 (Homo sapiens) (UniProt Q9UK32); settings: Compound concentration 1000.0 nM
[10] = biological target: 5'-AMP-activated protein kinase catalytic subunit alpha-2 (Homo sapiens) (UniProt P54646); settings: Compound concentration 1000.0 nM
[11] = biological target: 5-hydroxytryptamine receptor 1D (Homo sapiens) (UniProt P28221); settings: Compound concentration 10.0 uM
[12] = tested on: Epidermal growth factor receptor (Homo sapiens), P00533 [UNDEFINED MUTATION]; settings: Compound concentration 1000.0 nM
[13] = biological target: Serine/threonine-protein kinase Nek10 (Homo sapiens) (UniProt Q6ZWH5); settings: Compound concentration 1000.0 nM
[14] = biological target: Death-associated protein kinase 2 (Homo sapiens) (UniProt Q9UIK4); settings: Compound concentration 1000.0 nM
[15] = tested on: Receptor-type tyrosine-protein kinase FLT3 (Homo sapiens), P36888 [UNDEFINED MUTATION]; settings: Compound concentration 1000.0 nM
[16] = biological target: Protein kinase C epsilon type (Homo sapiens) (UniProt Q02156); settings: Compound concentration 1000.0 nM
[17] = biological target: Dual specificity mitogen-activated protein kinase kinase 6 (Homo sapiens) (UniProt P52564); settings: Compound concentration 1000.0 nM
[18] = biological target: Serine/threonine-protein kinase ICK (Homo sapiens) (UniProt Q9UPZ9); settings: Compound concentration 1000.0 nM
[19] = biological target: Receptor-interacting serine/threonine-protein kinase 1 (Homo sapiens) (UniProt Q13546); settings: Compound concentration 1000.0 nM
[20] = biological target: Death-associated protein kinase 1 (Homo sapiens) (UniProt P53355); settings: Compound concentration 1000.0 nM
[21] = biological target: Cyclin-dependent kinase 2 (Homo sapiens) (UniProt P24941); settings: Compound concentration 1000.0 nM
[22] = biological target: Ephrin type-B receptor 2 (Homo sapiens) (UniProt P29323); settings: Compound concentration 1000.0 nM
[23] = tested on: Tyrosine-protein kinase ABL1 (Homo sapiens), P00519 [Q252H]; settings: Compound concentration 1000.0 nM
[24] = biological target: cAMP-dependent protein kinase catalytic subunit PRKX (Homo sapiens) (UniProt P51817); settings: Compound concentration 1000.0 nM
[25] = biological target: Serine/threonine-protein kinase PAK 2 (Homo sapiens) (UniProt Q13177); settings: Compound concentration 1000.0 nM
[26] = tested on: Tyrosine-protein kinase ABL1 (Homo sapiens), P00519 [F317I]; settings: Compound concentration 1000.0 nM
[27] = biological target: Cyclin-dependent kinase 14 (Homo sapiens) (UniProt O94921); settings: Compound concentration 1000.0 nM
[28] = biological target: Ephrin type-B receptor 4 (Homo sapiens) (UniProt P54760); settings: Compound concentration 1000.0 nM
[29] = biological target: Inhibitor of nuclear factor kappa-B kinase subunit epsilon (Homo sapiens) (UniProt Q14164); settings: Compound concentration 1000.0 nM
[30] = biological target: MAP kinase-activated protein kinase 2 (Homo sapiens) (UniProt P49137); settings: Compound concentration 1000.0 nM
[31] = biological target: Angiopoietin-1 receptor (Homo sapiens) (UniProt Q02763); settings: Compound concentration 1000.0 nM
[32] = biological target: NT-3 growth factor receptor (Homo sapiens) (UniProt Q16288); settings: Compound concentration 1000.0 nM
[33] = biological target: Sodium-dependent dopamine transporter (Homo sapiens) (UniProt Q01959); settings: Compound concentration 10.0 uM
[34] = biological target: Focal adhesion kinase 1 (Homo sapiens) (UniProt Q05397); settings: Compound concentration 1000.0 nM
[35] = biological target: Serine/threonine-protein kinase 32A (Homo sapiens) (UniProt Q8WU08); settings: Compound concentration 1000.0 nM
[36] = tested on: Epidermal growth factor receptor (Homo sapiens), P00533 [L858R,T790M]; settings: Compound concentration 1000.0 nM
[37] = biological target: Phosphatidylinositol 3-kinase C2 domain-containing subunit gamma (Homo sapiens) (UniProt O75747); settings: Compound concentration 1000.0 nM
[38] = biological target: Serine/threonine-protein kinase 32C (Homo sapiens) (UniProt Q86UX6); settings: Compound concentration 1000.0 nM
[39] = biological target: Serine/threonine-protein kinase Nek5 (Homo sapiens) (UniProt Q6P3R8); settings: Compound concentration 1000.0 nM

Chain of Ribosomal protein S6 kinase alpha-6 (Homo sapiens) (Q9UK32 whole entry): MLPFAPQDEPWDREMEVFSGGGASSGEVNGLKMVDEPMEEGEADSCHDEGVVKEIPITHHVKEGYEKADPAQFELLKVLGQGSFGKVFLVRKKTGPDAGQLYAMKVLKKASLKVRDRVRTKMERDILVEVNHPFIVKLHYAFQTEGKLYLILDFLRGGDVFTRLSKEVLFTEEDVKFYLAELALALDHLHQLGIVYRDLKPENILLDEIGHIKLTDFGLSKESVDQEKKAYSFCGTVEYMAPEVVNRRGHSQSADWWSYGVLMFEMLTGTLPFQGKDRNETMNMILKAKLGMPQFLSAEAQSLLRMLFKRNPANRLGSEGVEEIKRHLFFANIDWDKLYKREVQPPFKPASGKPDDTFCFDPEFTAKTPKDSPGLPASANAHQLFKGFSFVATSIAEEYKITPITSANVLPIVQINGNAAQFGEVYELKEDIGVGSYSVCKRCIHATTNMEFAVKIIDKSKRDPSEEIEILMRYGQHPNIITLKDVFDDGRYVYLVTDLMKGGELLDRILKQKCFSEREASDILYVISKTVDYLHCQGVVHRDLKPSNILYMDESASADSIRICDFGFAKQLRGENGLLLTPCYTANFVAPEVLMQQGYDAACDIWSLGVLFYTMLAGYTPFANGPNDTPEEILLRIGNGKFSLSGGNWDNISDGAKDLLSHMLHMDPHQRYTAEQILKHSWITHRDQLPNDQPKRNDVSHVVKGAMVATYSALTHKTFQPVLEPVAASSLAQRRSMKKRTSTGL
Chain of cAMP-dependent protein kinase catalytic subunit PRKX (Homo sapiens) (P51817 whole entry): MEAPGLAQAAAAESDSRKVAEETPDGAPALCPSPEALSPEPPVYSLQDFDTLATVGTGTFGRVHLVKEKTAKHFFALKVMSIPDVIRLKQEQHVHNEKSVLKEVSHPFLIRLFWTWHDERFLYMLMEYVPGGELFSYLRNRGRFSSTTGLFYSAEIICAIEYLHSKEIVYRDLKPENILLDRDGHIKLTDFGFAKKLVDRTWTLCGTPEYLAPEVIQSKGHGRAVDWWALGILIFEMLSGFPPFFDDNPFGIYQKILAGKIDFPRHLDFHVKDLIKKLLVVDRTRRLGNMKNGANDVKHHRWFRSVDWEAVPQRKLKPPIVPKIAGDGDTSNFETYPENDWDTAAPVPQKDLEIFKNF
Chain of Serine/threonine-protein kinase 32C (Homo sapiens) (Q86UX6 whole entry): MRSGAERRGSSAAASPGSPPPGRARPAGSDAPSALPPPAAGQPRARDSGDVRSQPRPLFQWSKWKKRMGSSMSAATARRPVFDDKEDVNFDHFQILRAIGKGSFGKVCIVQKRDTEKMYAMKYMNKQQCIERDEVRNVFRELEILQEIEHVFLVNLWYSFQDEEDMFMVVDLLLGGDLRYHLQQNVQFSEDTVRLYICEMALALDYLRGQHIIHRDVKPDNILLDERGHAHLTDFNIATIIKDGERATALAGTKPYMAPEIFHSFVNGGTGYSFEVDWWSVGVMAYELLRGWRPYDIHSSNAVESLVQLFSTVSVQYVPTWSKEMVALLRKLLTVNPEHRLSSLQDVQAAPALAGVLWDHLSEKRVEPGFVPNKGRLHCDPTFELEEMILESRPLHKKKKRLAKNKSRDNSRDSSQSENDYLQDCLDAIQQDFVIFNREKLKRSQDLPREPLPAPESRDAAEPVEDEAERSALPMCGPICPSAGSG
Chain of Receptor-interacting serine/threonine-protein kinase 1 (Homo sapiens) (Q13546 whole entry): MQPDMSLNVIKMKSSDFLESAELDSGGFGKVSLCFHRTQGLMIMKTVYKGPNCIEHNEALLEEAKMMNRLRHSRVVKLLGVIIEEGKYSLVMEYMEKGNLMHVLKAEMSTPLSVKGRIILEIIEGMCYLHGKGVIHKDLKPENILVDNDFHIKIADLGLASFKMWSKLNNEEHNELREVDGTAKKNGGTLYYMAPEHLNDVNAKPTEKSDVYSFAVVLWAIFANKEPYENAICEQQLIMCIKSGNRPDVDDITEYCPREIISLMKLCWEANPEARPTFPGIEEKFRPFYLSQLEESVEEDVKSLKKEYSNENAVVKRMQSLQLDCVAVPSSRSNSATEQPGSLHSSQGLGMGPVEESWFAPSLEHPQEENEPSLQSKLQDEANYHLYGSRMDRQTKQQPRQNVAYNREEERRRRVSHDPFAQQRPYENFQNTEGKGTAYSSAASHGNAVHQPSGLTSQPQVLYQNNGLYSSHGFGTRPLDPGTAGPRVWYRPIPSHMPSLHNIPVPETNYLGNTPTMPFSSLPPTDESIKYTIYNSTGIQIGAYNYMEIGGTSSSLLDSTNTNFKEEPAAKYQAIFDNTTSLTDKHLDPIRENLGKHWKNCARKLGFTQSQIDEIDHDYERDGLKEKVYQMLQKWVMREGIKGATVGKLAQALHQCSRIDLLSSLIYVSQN
Chain of Ephrin type-B receptor 2 (Homo sapiens) (P29323 whole entry): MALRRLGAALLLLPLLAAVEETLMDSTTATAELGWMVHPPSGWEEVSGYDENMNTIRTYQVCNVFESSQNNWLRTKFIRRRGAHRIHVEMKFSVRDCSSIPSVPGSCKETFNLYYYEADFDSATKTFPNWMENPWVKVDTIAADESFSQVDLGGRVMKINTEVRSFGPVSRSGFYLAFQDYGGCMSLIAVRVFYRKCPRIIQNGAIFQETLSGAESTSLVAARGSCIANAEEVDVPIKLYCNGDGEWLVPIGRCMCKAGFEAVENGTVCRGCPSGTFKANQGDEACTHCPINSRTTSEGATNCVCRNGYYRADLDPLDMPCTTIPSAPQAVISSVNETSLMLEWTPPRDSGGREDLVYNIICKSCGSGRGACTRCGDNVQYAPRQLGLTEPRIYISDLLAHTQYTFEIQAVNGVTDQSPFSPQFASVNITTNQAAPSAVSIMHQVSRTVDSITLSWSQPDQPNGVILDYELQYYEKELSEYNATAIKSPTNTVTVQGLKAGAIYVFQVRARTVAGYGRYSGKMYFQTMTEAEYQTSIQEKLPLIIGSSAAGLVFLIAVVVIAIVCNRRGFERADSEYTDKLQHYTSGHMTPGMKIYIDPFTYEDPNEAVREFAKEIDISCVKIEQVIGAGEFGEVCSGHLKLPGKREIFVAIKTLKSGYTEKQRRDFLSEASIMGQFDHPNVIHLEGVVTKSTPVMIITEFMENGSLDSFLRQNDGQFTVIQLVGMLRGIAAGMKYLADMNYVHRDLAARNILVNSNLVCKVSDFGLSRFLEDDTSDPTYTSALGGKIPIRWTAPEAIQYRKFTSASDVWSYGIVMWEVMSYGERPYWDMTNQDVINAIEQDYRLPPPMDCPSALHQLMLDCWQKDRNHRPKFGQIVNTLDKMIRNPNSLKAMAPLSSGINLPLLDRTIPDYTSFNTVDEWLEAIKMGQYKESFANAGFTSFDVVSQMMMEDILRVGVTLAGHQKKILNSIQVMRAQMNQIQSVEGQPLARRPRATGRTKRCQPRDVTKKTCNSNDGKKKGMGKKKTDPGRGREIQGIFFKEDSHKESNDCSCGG
Chain of Mitogen-activated protein kinase 13 (Homo sapiens) (O15264 whole entry): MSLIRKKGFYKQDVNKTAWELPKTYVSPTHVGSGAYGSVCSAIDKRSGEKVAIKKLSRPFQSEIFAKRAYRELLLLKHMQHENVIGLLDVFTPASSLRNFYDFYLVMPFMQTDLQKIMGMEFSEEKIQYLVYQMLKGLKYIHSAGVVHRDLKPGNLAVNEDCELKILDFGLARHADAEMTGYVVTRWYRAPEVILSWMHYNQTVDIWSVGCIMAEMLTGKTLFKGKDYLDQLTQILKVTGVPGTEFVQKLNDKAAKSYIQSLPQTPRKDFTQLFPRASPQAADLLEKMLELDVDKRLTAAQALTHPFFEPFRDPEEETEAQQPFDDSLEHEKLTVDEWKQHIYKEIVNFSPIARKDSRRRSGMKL
Chain of Protein kinase C epsilon type (Homo sapiens) (Q02156 whole entry): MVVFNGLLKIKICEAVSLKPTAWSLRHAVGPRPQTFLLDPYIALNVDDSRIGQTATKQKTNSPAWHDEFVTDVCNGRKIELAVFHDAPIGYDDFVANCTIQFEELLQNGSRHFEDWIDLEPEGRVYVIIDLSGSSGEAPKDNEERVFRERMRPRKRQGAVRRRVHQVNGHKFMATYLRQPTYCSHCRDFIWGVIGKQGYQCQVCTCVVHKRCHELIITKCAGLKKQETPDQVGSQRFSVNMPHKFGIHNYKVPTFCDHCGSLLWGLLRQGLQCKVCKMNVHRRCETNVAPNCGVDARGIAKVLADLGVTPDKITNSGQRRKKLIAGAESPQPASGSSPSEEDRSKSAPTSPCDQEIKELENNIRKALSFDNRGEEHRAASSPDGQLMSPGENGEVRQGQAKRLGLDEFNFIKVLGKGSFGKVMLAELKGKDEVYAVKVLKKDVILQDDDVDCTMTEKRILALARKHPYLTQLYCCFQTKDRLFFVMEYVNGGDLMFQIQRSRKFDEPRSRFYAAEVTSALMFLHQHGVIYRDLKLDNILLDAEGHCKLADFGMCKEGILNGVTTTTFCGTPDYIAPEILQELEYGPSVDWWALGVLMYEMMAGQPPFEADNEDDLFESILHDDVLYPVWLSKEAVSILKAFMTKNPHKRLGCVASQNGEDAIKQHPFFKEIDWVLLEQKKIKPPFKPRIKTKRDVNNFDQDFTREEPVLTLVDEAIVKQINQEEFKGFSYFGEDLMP
Chain of Sodium-dependent dopamine transporter (Homo sapiens) (Q01959 whole entry): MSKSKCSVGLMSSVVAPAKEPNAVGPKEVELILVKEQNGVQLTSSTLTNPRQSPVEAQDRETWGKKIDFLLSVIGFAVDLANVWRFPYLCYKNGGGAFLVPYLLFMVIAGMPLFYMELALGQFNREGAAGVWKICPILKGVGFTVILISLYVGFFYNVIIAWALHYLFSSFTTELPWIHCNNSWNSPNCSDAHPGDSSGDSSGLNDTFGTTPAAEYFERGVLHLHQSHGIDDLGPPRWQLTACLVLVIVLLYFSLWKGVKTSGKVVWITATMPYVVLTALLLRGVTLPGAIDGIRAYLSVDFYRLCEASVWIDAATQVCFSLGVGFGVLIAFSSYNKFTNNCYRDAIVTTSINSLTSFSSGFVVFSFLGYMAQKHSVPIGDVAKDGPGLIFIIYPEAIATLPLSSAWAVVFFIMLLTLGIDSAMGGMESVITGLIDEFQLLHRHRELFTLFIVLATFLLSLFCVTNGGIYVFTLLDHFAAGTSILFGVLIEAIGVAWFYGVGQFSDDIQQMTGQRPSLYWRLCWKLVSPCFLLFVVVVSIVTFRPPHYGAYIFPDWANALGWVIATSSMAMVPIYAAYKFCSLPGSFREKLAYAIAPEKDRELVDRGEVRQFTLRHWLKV

N#CC1(c2ccccn2)CCN(Cc2cc(C(=O)N3CCCC3)c(=O)n3ccccc23)CC1
inactive: residual activity [1] 95% | residual activity [2] 86% | residual activity [3] 91% | inhibition [4] 26.7% | residual activity [5] 100% | residual activity [6] 87% | residual activity [7] 89% | residual activity [8] 82% | residual activity [9] 91% | residual activity [10] 100% | inhibition [11] 14.6% | residual activity [12] 94% | residual activity [13] 96% | residual activity [14] 94% | residual activity [15] 90% | residual activity [16] 79% | residual activity [17] 98% | residual activity [18] 100% | residual activity [19] 100% | residual activity [20] 89% | residual activity [21] 86% | residual activity [22] 77% | residual activity [23] 97% | residual activity [24] 96% | residual activity [25] 100% | residual activity [26] 87% | residual activity [27] 100% | residual activity [28] 100% | residual activity [29] 94% | residual activity [30] 84% | residual activity [31] 85% | residual activity [32] 100% | inhibition [33] 18.6% | residual activity [34] 89% | residual activity [35] 98% | residual activity [36] 100% | residual activity [37] 73% | residual activity [38] 100% | residual activity [39] 82%

N#CC1(c2ccccn2)CCN(Cc2cc(C(=O)O)c(=O)n3ccccc23)CC1 [MSD-M1PAM]
inactive: residual activity [1] 100% | residual activity [2] 100% | residual activity [3] 76% | inhibition [4] 21% | residual activity [5] 76% | residual activity [6] 94% | residual activity [7] 100% | residual activity [8] 50% | residual activity [9] 97% | residual activity [10] 100% | inhibition [11] -4.55% | residual activity [12] 80% | residual activity [13] 93% | residual activity [14] 99% | residual activity [15] 94% | residual activity [16] 100% | residual activity [17] 99% | residual activity [18] 75% | residual activity [19] 100% | residual activity [20] 100% | residual activity [21] 100% | residual activity [22] 100% | residual activity [23] 89% | residual activity [24] 100% | residual activity [25] 77% | residual activity [26] 65% | residual activity [27] 100% | residual activity [28] 83% | residual activity [29] 88% | residual activity [30] 75% | residual activity [31] 95% | residual activity [32] 70% | inhibition [33] -7.27% | residual activity [34] 100% | residual activity [35] 90% | residual activity [36] 71% | residual activity [37] 97% | residual activity [38] 72% | residual activity [39] 100%
